Some test systems named below: A498; BT-549; CAKI-1; CCRF-CEM; HCT-116; LOX IMVI; M14; NCI-H226; NCI-H460; OVCAR-4; OVCAR-8; RXF 393; SF-539; SK-MEL-2; SK-MEL-5; SNB-75; T47D; U-251; IGROV-1; MOLT-4.
Holding throughout (experiment): inhibition of tumour cell growth, NCI panel, 48 h

We go through seven compounds from ChEMBL document CHEMBL1201862, “PubChem BioAssay data set” (2004).

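These data come from cells grown in 96-well plates and exposed to compound for 48 hours at five concentrations. Abbreviation: GI50, concentration required for 50% inhibition of growth.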 The source made the active and inactive calls. Rule as the data show it: active = GI50 up to about 1.1 µM and inactive = higher.

For the compound `COC(=O)n1c(=O)nc2c3c(ncn21)Oc1c(c(-c2ccccc2)nn1-c1ccccc1)C3c1ccc(Cl)cc1` (centres undefined), the GI50 with A498 is 2.03 µM (inactive); in the experiment on BT-549, 3.87 µM (inactive); with CAKI-1 it was 1.63 µM (inactive); with CCRF-CEM, 1.5 µM (inactive); in the experiment on HCT-116 it was 1.01 µM (active); with LOX IMVI, 1.48 µM (inactive). The GI50 with M14 was 1.44 µM (inactive); in the experiment with NCI-H226, 1.58 µM (inactive); in the experiment on NCI-H460, 1.65 µM (inactive); with OVCAR-4, 2.39 µM (inactive); with OVCAR-8 it was 1.63 µM (inactive); in the experiment on RXF 393, 1.63 µM (inactive). The GI50 in the experiment with SF-539 is 1.76 µM (inactive); in the experiment with SK-MEL-2 it was 1.7 µM (inactive); in the experiment on SK-MEL-5, 1.77 µM (inactive); in the experiment with SNB-75, 2 µM (inactive); with T47D it was 1.71 µM (inactive); with U-251, 1.71 µM (inactive).
On to `Cc1cn2cc(-c3cccs3)nc2s1`, for which the GI50 in the experiment with A498 was 27.2 µM (inactive); in the experiment with BT-549 it was > 100 µM (inactive); in the experiment with CAKI-1, > 100 µM (inactive); in the experiment on CCRF-CEM it was 54.6 µM (inactive); with HCT-116, > 100 µM (inactive); with IGROV-1, > 86.3 µM (inactive). For the same compound, the GI50 is > 45.9 µM (inactive) in the experiment on LOX IMVI; > 78.3 µM (inactive) in the experiment with M14; 58.7 µM (inactive) in the experiment on MOLT-4; > 24.6 µM (inactive) in the experiment on NCI-H226; > 100 µM (inactive) with NCI-H460; > 100 µM (inactive) with OVCAR-4. Besides, the GI50 in the experiment on OVCAR-8 was > 100 µM (inactive); in the experiment with RXF 393, > 100 µM (inactive); in the experiment with SF-539 it was > 100 µM (inactive); in the experiment on SK-MEL-2, > 100 µM (inactive); with SK-MEL-5, > 61.8 µM (inactive); in the experiment on SNB-75, > 100 µM (inactive). For the same compound, the GI50 with T47D was 25.4 µM (inactive); with U-251, > 100 µM (inactive).
As for `CC(C)(C)OCC1NC(=O)[C@@H]2Cc3c([nH]c4ccccc34)C(c3ccccc3)N2C1=O` (some centres undefined), the GI50 with A498, in the experiment on BT-549, with CAKI-1, with CCRF-CEM, with HCT-116 and in the experiment with IGROV-1 was > 50 µM (inactive) throughout. Besides, the GI50 with LOX IMVI was > 50 µM (inactive); in the experiment on M14, > 50 µM (inactive); with MOLT-4, 16.2 µM (inactive); in the experiment on NCI-H226, > 27.4 µM (inactive); in the experiment on NCI-H460, > 50 µM (inactive); in the experiment with OVCAR-4 it was > 50 µM (inactive). The GI50 in the experiment on OVCAR-8 was > 50 µM (inactive); in the experiment with RXF 393, > 50 µM (inactive); with SF-539 it was 30.1 µM (inactive); with SK-MEL-2 it was > 50 µM (inactive); with SK-MEL-5, > 50 µM (inactive); with SNB-75, > 50 µM (inactive). The GI50 with T47D and in the experiment with U-251 was > 50 µM (inactive) each time.
For `Cc1cccc2c1C(=O)/C(=C/c1ccccc1C(=O)O)C2`, the GI50 in the experiment on A498 is > 100 µM (inactive); with BT-549, > 100 µM (inactive); in the experiment with CAKI-1 it was > 100 µM (inactive); in the experiment with CCRF-CEM, > 100 µM (inactive); in the experiment with HCT-116 it was 98.6 µM (inactive); with IGROV-1 it was > 100 µM (inactive). In addition, the GI50 in the experiment with LOX IMVI is > 100 µM (inactive); in the experiment with M14, > 100 µM (inactive); in the experiment with MOLT-4, > 100 µM (inactive); with NCI-H226, 98.4 µM (inactive); with NCI-H460, > 100 µM (inactive); in the experiment on OVCAR-4 it was > 100 µM (inactive). Further, the GI50 in the experiment with OVCAR-8 was > 100 µM (inactive); with RXF 393 it was > 100 µM (inactive); in the experiment with SF-539, > 100 µM (inactive); in the experiment with SK-MEL-2, > 100 µM (inactive); in the experiment with SK-MEL-5 it was 37.5 µM (inactive); in the experiment with SNB-75, 85.3 µM (inactive). Besides, the GI50 with T47D and in the experiment with U-251 was > 100 µM (inactive) throughout.
On to `O=[N+]([O-])c1cccc(CSc2nc(O)c3nc[nH]c3n2)c1`, for which the GI50 in the experiment on A498 was > 100 µM (inactive); with BT-549 it was > 100 µM (inactive); with CAKI-1, > 100 µM (inactive); in the experiment on CCRF-CEM, 9.46 µM (inactive); in the experiment with HCT-116, > 100 µM (inactive); in the experiment on IGROV-1, > 100 µM (inactive). Also, the GI50 in the experiment on LOX IMVI was > 100 µM (inactive); in the experiment on M14, > 100 µM (inactive); in the experiment with MOLT-4, > 100 µM (inactive); in the experiment on NCI-H226, 79.8 µM (inactive); in the experiment with NCI-H460, > 100 µM (inactive); in the experiment with OVCAR-4, > 100 µM (inactive). The GI50 with OVCAR-8, with RXF 393, with SK-MEL-2, in the experiment with SK-MEL-5, in the experiment with SNB-75 and in the experiment on T47D was > 100 µM (inactive) each time. Also, in the experiment on U-251, the GI50 is > 100 µM (inactive).
As for `C(=N\c1ccc(-c2nc3ccccc3[nH]2)cc1)/c1ccco1`, the GI50 in the experiment with A498 is > 100 µM (inactive); with BT-549 it was > 100 µM (inactive); with CAKI-1, > 100 µM (inactive); in the experiment with CCRF-CEM it was 16.5 µM (inactive); with HCT-116, 57.3 µM (inactive); in the experiment on IGROV-1 it was > 100 µM (inactive). For the same compound, the GI50 is 67 µM (inactive) with LOX IMVI; > 100 µM (inactive) with M14; 29.3 µM (inactive) with MOLT-4; > 100 µM (inactive) in the experiment with NCI-H226; 70 µM (inactive) with OVCAR-4; 34.4 µM (inactive) in the experiment with OVCAR-8. For the same compound, the GI50 in the experiment with RXF 393 is 73.8 µM (inactive); with SF-539, 77.8 µM (inactive); in the experiment on SK-MEL-2, 67.8 µM (inactive); in the experiment with SK-MEL-5, 25.5 µM (inactive); in the experiment with SNB-75 it was > 100 µM (inactive); in the experiment with T47D, 38.5 µM (inactive).
With `CC1(C)CC[C@]2(C(=O)O)[C@H](O)C[C@]3(C)C(=CC[C@@H]4[C@@]5(C)CC[C@H](OC6OC(C(=O)O)C(O)C(O)C6O)C(C)(C)[C@@H]5CC[C@]43C)[C@@H]2C1` (some centres undefined), the GI50 in the experiment with A498 is 22.2 µM (inactive); with BT-549, 18.5 µM (inactive); with CAKI-1 it was > 100 µM (inactive); with CCRF-CEM it was 36.9 µM (inactive); in the experiment on HCT-116, > 100 µM (inactive); in the experiment with IGROV-1 it was > 100 µM (inactive). For the same compound, the GI50 with LOX IMVI is 64.3 µM (inactive); in the experiment on M14, > 100 µM (inactive); in the experiment on MOLT-4 it was > 100 µM (inactive); in the experiment with NCI-H226 it was > 100 µM (inactive); in the experiment with NCI-H460, > 100 µM (inactive); in the experiment on OVCAR-4 it was 22.3 µM (inactive). Further, the GI50 in the experiment with OVCAR-8 was 65.6 µM (inactive); in the experiment on RXF 393, 26.1 µM (inactive); with SK-MEL-2, > 100 µM (inactive); with SK-MEL-5, > 100 µM (inactive); in the experiment with SNB-75, 46.7 µM (inactive); in the experiment on T47D, > 100 µM (inactive). The GI50 in the experiment on U-251 was 41 µM (inactive).
